Reference: PMC6278658, “Two New Altenusin/Thiazole Hybrids and a New Benzothiazole Derivative from the Marine Sponge-Derived Fungus Alternaria sp. SCSIOS02F49” (Molecules, 2018)

Columns and labels:
[1] = DPPH radical scavenging activity; conditions: for IC50: DPPH 0.1 mM in ethanol, 30 min at room temperature in the dark, absorbance at 517 nm, triplicates, read-out: DPPH Free Radical Scavenging Activity (IC50); for DPPH free-radical-scavenging activity compared with BHT: comparison with positive control BHT
Procedure: The DPPH (2,2-diphenyl-1-picrylhydrazyl) radical scavenging ability of the sample was conducted based on the method described by Kumagai et al. with minor modifications. The reaction mixture was with DPPH (0.1 mM, dissolved in ethanol) and various concentrations of sample in equal volumes, which was incubated at room temperature for 30 min in the dark. The absorbance of the mixture was measured at 517 nm using UV (UV-2600, UNICO Instrument Co. Ltd., Shanghai, China). The final concentrations of each compound in the wells were confined as 1000, 333, 111, 37.0, 12.3, 4.11, 1.37, and 0.46 μM. The ethanol and butylated hydroxytoluene (BHT), instead of samples, were used for a blank and positive control, respectively. Each assay was carried out in triplicates. IC50, the concentration of elimination of 50% DPPH radical scavenging activity, was measured by non-liner regression.

[2] = molecular target: T1, Human recombinant COX-2 enzyme (Homo sapiens, UniProt P35354); assay: COX-2 inhibitory activity assay (Cayman COX Fluorescent Inhibitor Screening Assay Kit); type: biochemical; conditions: 15 min pre-incubation, arachidonic acid substrate, fluorescence 530/595 nm, triplicates
T1 construct: purchased Cayman #700100
T1 sequence (P35354 18-604): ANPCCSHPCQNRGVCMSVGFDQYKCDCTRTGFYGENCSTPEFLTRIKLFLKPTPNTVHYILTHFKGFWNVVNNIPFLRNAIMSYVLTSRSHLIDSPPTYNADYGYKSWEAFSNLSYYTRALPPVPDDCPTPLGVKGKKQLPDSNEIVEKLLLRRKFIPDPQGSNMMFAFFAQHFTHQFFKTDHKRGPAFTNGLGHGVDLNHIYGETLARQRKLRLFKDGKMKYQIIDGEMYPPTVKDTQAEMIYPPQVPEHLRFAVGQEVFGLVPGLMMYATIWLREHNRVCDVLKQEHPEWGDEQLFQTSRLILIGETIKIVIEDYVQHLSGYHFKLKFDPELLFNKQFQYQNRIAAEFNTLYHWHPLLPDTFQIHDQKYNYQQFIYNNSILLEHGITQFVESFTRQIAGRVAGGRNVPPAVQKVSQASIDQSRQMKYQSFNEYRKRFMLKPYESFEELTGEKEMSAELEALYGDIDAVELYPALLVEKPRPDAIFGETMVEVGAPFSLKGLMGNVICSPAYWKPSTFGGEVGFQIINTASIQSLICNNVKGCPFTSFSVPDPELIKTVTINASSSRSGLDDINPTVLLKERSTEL
Procedure: The COX-2 inhibitory activity assay of sample was conducted according to a previously reported method. […] Human recombinant COX-2 enzyme was pre-incubated with inhibitors for 15 min at normal temperature, followed by the addition of heme and fluorometric substrate and incubation for another 15 min at normal temperature. The reaction was started by the addition of arachidonic acid and allowed to proceed for 2 min. […] Each assay was carried out in triplicates. IC50, was measured by non-liner regression.

[3] = parameters: method as in PMID 22061662; conditions: previous study; cited from earlier work

IC50 [1] [µM]	IC50 [2] [µM]	Structure (SMILES)	DPPH free-radical-scavenging activity compared with BHT [1]	radical scavenging activity in comparison with vitamin C [3]
> 1000	> 30	COc1cc(O)c(C(=O)O)c(-c2cc(O)c3ncsc3c2C)c1 [Compound 2, altenusinoides B]		
> 1000	> 30	COC(=O)Cc1cc(O)cc2scnc12 [Compound 3, methyl 2-(6-hydroxybenzothiazol-4-yl) acetate]		
100.6 ± 0.025	9.5 ± 0.08	COc1cc(O)cc(-c2cc(O)c(O)cc2C)c1 [Compound 5, 5′-methoxy-6-methyl-biphenyl-3,4,3′-triol]	higher DPPH free-radical-scavenging activities than BHT	strong radical scavenging activity
> 1000	> 30	COc1cc(O)cc(C2=C(C)C[C@H](O)C2=O)c1 [Compound 6, (S)-alternariphent A1]		

The next lines start with the compound.

Structure (SMILES)	IC50 [1] [µM]	IC50 [2] [µM]	DPPH free-radical-scavenging activity compared with BHT [1]	radical scavenging activity in comparison with vitamin C [3]
COc1cc(O)c(C(=O)O)c(-c2c(C)cc(O)c3ncsc23)c1 [Compound 1, Altenusinoides A]	> 1000	> 30		
COc1cc(O)c(C(=O)O)c(-c2cc(O)c(O)cc2C)c1 [Compound 4, Altenusin]	10.7 ± 0.09	> 30	higher DPPH free-radical-scavenging activities than BHT	strong radical scavenging activity
Cc1cc(C(C)(C)C)c(O)c(C(C)(C)C)c1 [BHT, butylated hydroxytoluene, reference compound]	170.3 ± 0.06			
